These results are taken from ChEMBL document CHEMBL3792287, “Antiplasmodial phloroglucinol derivatives from Syncarpia glomulifera” (Bioorg Med Chem, 2016).

One series relates to Plasmodium falciparum. As to the kind of experiment: Antiplasmodial activity against Plasmodium falciparum Dd2 incubated under low oxygen conditions after 72 hrs by SYBR green assay. The format is functional, organism-based. Particulars: Dd2, 72 h.
Series [1] relates to HEK293. In words: Cytotoxicity against HEK293 cells assessed as reduction in cell viability up to 3.125 uM after 24 hrs by resazurin dye based fluorescence assay. Particulars: human, hek293, 24 h.
Series [2] is described as follows: Cytotoxicity against HEK293 cells assessed as reduction in cell viability at 50 uM after 24 hrs by resazurin dye based fluorescence assay. Conditions: human, read-out: INH. (Alamar Blue is a resazurin reagent that responds to reducing activity.)
The test system of series [3] is HEK293. In words: Cytotoxicity against HEK293 cells assessed as reduction in cell viability at 100 uM after 24 hrs by resazurin dye based fluorescence assay. Particulars: human, hek293, 24 h.

Turning to `CCCCCC(=O)c1c(O)cc(O)cc1O`, the IC50 with Plasmodium falciparum is > 80 µM.
Regarding `CCCCCC(=O)c1c(O)cc(O)c2c1OC1=C(C(=O)C(C)(C)C(=O)C1(C)C)C2CC(C)C` (racemic), the IC50 in the series on Plasmodium falciparum turned out to be 0.1 µM. Further, in the series on HEK293 [1], the Activity result is “Non-toxic”. Besides, the cytotoxicity at 24 h, 50 µM in series [2] came to 58%.
`CC(C)=CCCC1=CCC2(C(=O)C(C)(C)C(=O)C(C)(C)C2=O)C(CC(C)C)C1` (racemic) returned an IC50 in the series with Plasmodium falciparum of 3.81 µM. In addition, the Activity result with HEK293 [3] is listed as “Non-toxic”.
For `C[C@@H]1CC[C@H]2[C@@H](C)C(=O)O[C@@H]3O[C@@]4(C)CC[C@@H]1[C@]32OO4` [ARTEMISININ], the IC50 in the series on Plasmodium falciparum stood at 0.0062 µM.
The same measure, in the same setting: as for `C=C(C)[C@@H]1CC[C@]2(C(=O)O)CC[C@]3(C)[C@H](CC[C@@H]4[C@@]5(C)CC[C@H](O)C(C)(C)[C@@H]5CC[C@]43C)[C@@H]12` [BETULINIC ACID], the figure is 3.44 µM.
In the case of `CC(=O)O[C@H]1CC[C@]2(C)[C@H]3CC=C4[C@@H]5[C@@H](C)[C@H](C)CC[C@]5(C(=O)O)CC[C@@]4(C)[C@]3(C)CC[C@H]2C1(C)C` [O-ACETYLURSOLIC ACID], the IC50 with Plasmodium falciparum worked out at 12.1 µM.
Still for that read-out and setting: the figure for `C[C@H]1[C@H](C)CC[C@]2(C(=O)O)CC[C@]3(C)C(=CC[C@@H]4[C@@]5(C)CC[C@H](O)C(C)(C)[C@@H]5CC[C@]43C)[C@H]12` [URSOLIC ACID] is > 40 µM.

As a reminder, the IC50 is the concentration that inhibits the measured activity by half. Lower therefore signals greater potency.
